This test addresses T1, PsPto‐PscC‐LBD (Pseudomonas syringae group genomosp. 3, UniProt Q883C0).
T1 construct: gene PSPTO_2448; pET28b(+) derivative p2448-LBD, HisTrap purified, E. coli BL21(AI)
Nature of the test: isothermal titration calorimetry. Format: binding. (ITC needs no label: the signal is the heat of the interaction.)

Like-named read-outs stand apart in the source and are kept apart here.

T1 sequence (Q883C0 entry or part of it): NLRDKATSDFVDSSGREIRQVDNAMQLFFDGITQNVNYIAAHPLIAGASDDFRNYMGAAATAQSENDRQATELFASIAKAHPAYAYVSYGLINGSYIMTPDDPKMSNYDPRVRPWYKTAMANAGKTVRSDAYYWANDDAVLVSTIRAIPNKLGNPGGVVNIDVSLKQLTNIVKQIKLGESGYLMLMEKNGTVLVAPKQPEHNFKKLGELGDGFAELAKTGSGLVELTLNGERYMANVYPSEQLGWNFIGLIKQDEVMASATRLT

As for `NCCCC(=O)O` [GABA], the Kd (read-out: K D) turned out to be 1.87 ± 0.3 µM. As for `O=C(O)[C@@H]1CCCN1` [L‐Pro], the Kd is 4.52 ± 0.4 µM.
